# Laboratory results as given in patent publication US20210395248A1, “INHIBITORS OF HUMAN IMMUNODEFICIENCY VIRUS REPLICATION” (ViiV HEALTHCARE UK (NO.5) LIMITED, priority 2018, published 2021).
# Where two headings read alike, the source gives them in different places.
# What was measured:
# [1] = system: recombinant NL4-3 virus (Renilla luciferase reporter) in MT-2 cells; assay: HIV cell culture assay (antiviral activity, luciferase readout in infected MT-2 cells); assay type: cell-based; settings: NL43
# Method: HIV cell culture assay—MT-2 cells, 293T cells and the proviral DNA clone of NL4-3 virus were obtained from the NIH AIDS Research and Reference Reagent Program. MT-2 cells were propagated in RPMI 1640 media supplemented with 10% heat inactivated fetal bovine serum (FBS), […]. The 293T cells were propagated in DMEM media supplemented with 10% heat inactivated FBS, […]. A recombinant NL4-3 proviral clone, in which a section of the nef gene was replaced with the Renilla luciferase gene, was used to make the reference virus used in these studies. The recombinant virus was prepared through transfection of the recombinant NL4-3 proviral clone into 293T cells using Transit-293 Transfection Reagent from Mirus Bio LLC (Madison, Wis.). Supernatent was harvested after 2-3 days and the amount of virus present was titered in MT-2 cells using luciferase enzyme activity as a marker by measuring luciferase enzyme activity. Luciferase was quantitated using the EnduRen Live Cell Substrate from Promega (Madison, Wis.). Antiviral activities of compounds toward the recombinant virus were quantified by measuring luciferase activity in MT-2 cells infected for 4-5 days with the recombinant virus in the presence of serial dilutions of the compound.
# The 50% effective concentration (EC50) was calculated by using the exponential form of the median effect equation where (Fa)=1/[1+(EC50/drug conc.)m] (Johnson V A, Byington RT. Infectivity Assay. In Techniques in HIV Research, ed. Aldovini A, Walker B D. 71-76. New York: Stockton Press. 1990). The 50% inhibitory concentration (EC50) was calculated by using the exponential form of the median effect equation where percent inhibition=1/[1+(EC50/drug concentration)m], where m is a parameter that reflects the slope of the concentration-response curve.
# [2] = Compound cytotoxicity, XTT-based colorimetric assay; assay type: cell-based; settings: human
# Method: Compound cytotoxicity and the corresponding CC50 values were determined using the same protocol as described in the antiviral assay except that uninfected cells were used. Cytotoxicity was assessed on day 4 in uninfected MT2 cells by using a XTT (2,3-bis [2-Methoxy-4-nitro-5-sulfophenyl]-2H-tetrazolium-5-carboxyanilide inner salt)-based colorimetric assay (Sigma-Aldrich, St Louis, Mo.).
# [3] = uninfected MT2 cells, day 4, XTT, read-out: CC50
SMILES,EC50 [1] [nM],"CC50 at 4 days [2, 3] [nM]",CC50 at 4 days [2] [nM]
"Cn1nc(NS(C)(=O)=O)c2c(Cl)ccc(-n3c([C@H](Cc4cc(F)cc(F)c4)NC(=O)Cn4nc(C(F)F)c5c4C(F)(F)[C@@H]4C[C@H]54)nc4nc(N5CCOC(C)(C)C5)ccc4c3=O)c21 (atropisomer, axis not shown; (P)) [Example 29, N—((S)-1-((3P)-3-(4-chloro-1-methyl-3-(methylsulfonamido)-1H-indazol-7-yl)-7-(2,2-dimethylmorpholino)-4-oxo-3,4-dihydropyrido[2,3-d]pyrimidin-2-yl)-2-(3,5-difluorophenyl)ethyl)-2-((3bS,4aR)-3-(difluoromethyl)-5,5-difluoro-3b,4,4a,5-tetrahydro-1H-cyclopropa[3,4]cyclopenta[1,2-c]pyrazol-1-yl)acetamide]",0.035,> 100,
"CC(C)n1ccc(CC(=O)N[C@@H](Cc2cc(F)cc(F)c2)c2nc3nc(N4C[C@@H](C)O[C@@H](C)C4)ccc3c(=O)n2-c2ccc(Cl)c3c(NS(C)(=O)=O)nn(C)c23)n1 (atropisomer, axis not shown; (P)) [Example 18, N—((S)-1-((3P)-3-(4-chloro-1-methyl-3-(methylsulfonamido)-1H-indazol-7-yl)-7-((2S,6R)-2,6-dimethylmorpholino)-4-oxo-3,4-dihydropyrido[2,3-d]pyrimidin-2-yl)-2-(3,5-difluorophenyl)ethyl)-2-(1-isopropyl-1H-pyrazol-3-yl)acetamide]",0.16,> 100,
"C[C@@H]1CN(c2ccc3c(=O)n(-c4ccc(Cl)c5c(NS(C)(=O)=O)nn(CC(F)(F)F)c45)c([C@H](Cc4cc(F)cc(F)c4)NC(=O)Cn4nc(C(F)(F)F)c5c4C(F)(F)[C@@H]4C[C@H]54)nc3n2)C[C@H](C)O1 (atropisomer, axis not shown; (aR)) [Example 8, N—((S)-1-(3-(4-chloro-3-(methylsulfonamido)-1-(2,2,2-trifluoroethyl)-1H-indazol-7-yl)-7-((2S,6R)-2,6-dimethylmorpholino)-4-oxo-3,4-dihydropyrido[2,3-d]pyrimidin-2-yl)-2-(3,5-difluorophenyl)ethyl)-2-((3bS,4aR)-5,5-difluoro-3-(trifluoromethyl)-3b,4,4a,5-tetrahydro-1H-cyclopropa[3,4]cyclopenta[1,2-c]pyrazol-1-yl)acetamide]",0.032,> 500,
"Cn1nc(NS(C)(=O)=O)c2c(Cl)ccc(-n3c([C@H](Cc4cc(F)cc(F)c4)NC(=O)Cn4nc(C(F)F)c5c4C(F)(F)[C@@H]4C[C@H]54)nc4nc(NCCC(C)(F)F)ccc4c3=O)c21 (atropisomer, axis not shown; (P)) [Example 25, N—((S)-1-((3P)-3-(4-chloro-1-methyl-3-(methylsulfonamido)-1H-indazol-7-yl)-7-((3,3-difluorobutyl)amino)-4-oxo-3,4-dihydropyrido[2,3-d]pyrimidin-2-yl)-2-(3,5-difluorophenyl)ethyl)-2-((3bS,4aR)-3-(difluoromethyl)-5,5-difluoro-3b,4,4a,5-tetrahydro-1H-cyclopropa[3,4]cyclopenta[1,2-c]pyrazol-1-yl)acetamide]",0.037,> 100,
"CCN(CCC(F)(F)F)c1ccc2c(=O)n(-c3ccc(Cl)c4c(NS(C)(=O)=O)nn(C)c34)c([C@H](Cc3cc(F)cc(F)c3)NC(=O)Cn3nc(C(F)F)c4c3C(F)(F)[C@@H]3C[C@H]43)nc2n1 [Example 10, N—((S)-1-((3P)-3-(4-chloro-1-methyl-3-(methylsulfonamido)-1H-indazol-7-yl)-7-(ethyl(3,3,3-trifluoropropyl)amino)-4-oxo-3,4-dihydropyrido[2,3-d]pyrimidin-2-yl)-2-(3,5-difluorophenyl)ethyl)-2-((3bS,4aR)-3-(difluoromethyl)-5,5-difluoro-3b,4,4a,5-tetrahydro-1H-cyclopropa[3,4]cyclopenta[1,2-c]pyrazol-1-yl)acetamide]",0.037,> 100,
"Cn1nc(NS(C)(=O)=O)c2c(Cl)ccc(-n3c([C@H](Cc4cc(F)cc(F)c4)NC(=O)Cn4nc(C(F)F)c5c4C(F)(F)[C@@H]4C[C@H]54)nc4nc(N5C6CCC5COC6)ccc4c3=O)c21 [Example 20, N-((1S)-1-(7-(3-oxa-8-azabicyclo[3.2.1]octan-8-yl)-(3P)-3-(4-chloro-1-methyl-3-(methylsulfonamido)-1H-indazol-7-yl)-4-oxo-3,4-dihydropyrido[2,3-d]pyrimidin-2-yl)-2-(3,5-difluorophenyl)ethyl)-2-((3bS,4aR)-3-(difluoromethyl)-5,5-difluoro-3b,4,4a,5-tetrahydro-1H-cyclopropa[3,4]cyclopenta[1,2-c]pyrazol-1-yl)acetamide]",0.05,,> 100
"CC(F)CCNc1ccc2c(=O)n(-c3ccc(Cl)c4c(NS(C)(=O)=O)nn(C)c34)c([C@H](Cc3cc(F)cc(F)c3)NC(=O)Cn3nc(C(F)F)c4c3C(F)(F)[C@@H]3C[C@H]43)nc2n1 (stereo partly drawn) [Example 9, N-((1S)-1-((3P)-3-(4-chloro-1-methyl-3-(methylsulfonamido)-1H-indazol-7-yl)-7-((3-fluorobutyl)amino)-4-oxo-3,4-dihydropyrido[2,3-d]pyrimidin-2-yl)-2-(3,5-difluorophenyl)ethyl)-2-((3bS,4aR)-3-(difluoromethyl)-5,5-difluoro-3b,4,4a,5-tetrahydro-1H-cyclopropa[3,4]cyclopenta[1,2-c]pyrazol-1-yl)acetamide]",0.046,> 100,
"Cn1nc(NS(C)(=O)=O)c2c(Cl)ccc(-n3c([C@H](Cc4cc(F)cc(F)c4)NC(=O)Cn4nc(C(F)F)c5c4C(F)(F)[C@@H]4C[C@H]54)nc4nc(N5CC6CCC(C5)O6)ccc4c3=O)c21 [Example 21, N-((1S)-1-(7-(8-oxa-3-azabicyclo[3.2.1]octan-3-yl)-(3P)-3-(4-chloro-1-methyl-3-(methylsulfonamido)-1H-indazol-7-yl)-4-oxo-3,4-dihydropyrido[2,3-d]pyrimidin-2-yl)-2-(3,5-difluorophenyl)ethyl)-2-((3bS,4aR)-3-(difluoromethyl)-5,5-difluoro-3b,4,4a,5-tetrahydro-1H-cyclopropa[3,4]cyclopenta[1,2-c]pyrazol-1-yl)acetamide]",0.058,> 100,
"C[C@@H]1CN(c2ccc3c(=O)n(-c4ccc(Cl)c5c(NS(C)(=O)=O)nn(CC(F)F)c45)c([C@H](Cc4cc(F)cc(F)c4)NC(=O)Cn4nc(C(F)F)c5c4C(F)(F)[C@@H]4C[C@H]54)nc3n2)C[C@H](C)O1 (atropisomer, axis not shown; (aR)) [Example 3, N—((S)-1-(3-(4-chloro-1-(2,2-difluoroethyl)-3-(methylsulfonamido)-1H-indazol-7-yl)-7-((2S,6R)-2,6-dimethylmorpholino)-4-oxo-3,4-dihydropyrido[2,3-d]pyrimidin-2-yl)-2-(3,5-difluorophenyl)ethyl)-2-((3bS,4aR)-3-(difluoromethyl)-5,5-difluoro-3b,4,4a,5-tetrahydro-1H-cyclopropa[3,4]cyclopenta[1,2-c]pyrazol-1-yl)acetamide]",0.032,> 500,
"Cn1nc(NS(C)(=O)=O)c2c(Cl)ccc(-n3c([C@H](Cc4cc(F)cc(F)c4)NC(=O)Cn4nc(C(F)F)c5c4C(F)(F)[C@@H]4C[C@H]54)nc4nc(N5CCO[C@H](C(F)(F)F)C5)ccc4c3=O)c21 (atropisomer, axis not shown; (P)) [Example 11, N—((S)-1-((3P)-3-(4-chloro-1-methyl-3-(methylsulfonamido)-1H-indazol-7-yl)-4-oxo-7-((S)-2-(trifluoromethyl)morpholino)-3,4-dihydropyrido[2,3-d]pyrimidin-2-yl)-2-(3,5-difluorophenyl)ethyl)-2-((3bS,4aR)-3-(difluoromethyl)-5,5-difluoro-3b,4,4a,5-tetrahydro-1H-cyclopropa[3,4]cyclopenta[1,2-c]pyrazol-1-yl)acetamide]",0.019,> 100,
"Cn1nc(NS(C)(=O)=O)c2c(Cl)ccc(-n3c([C@H](Cc4cc(F)cc(F)c4)NC(=O)Cn4nc(C(F)F)c5c4C(F)(F)[C@@H]4C[C@H]54)nc4nc(NCCC(C)(C)F)ccc4c3=O)c21 (atropisomer, axis not shown; (P)) [Example 24, N—((S)-1-((3P)-3-(4-chloro-1-methyl-3-(methylsulfonamido)-1H-indazol-7-yl)-7-((3-fluoro-3-methylbutyl)amino)-4-oxo-3,4-dihydropyrido[2,3-d]pyrimidin-2-yl)-2-(3,5-difluorophenyl)ethyl)-2-((3bS,4aR)-3-(difluoromethyl)-5,5-difluoro-3b,4,4a,5-tetrahydro-1H-cyclopropa[3,4]cyclopenta[1,2-c]pyrazol-1-yl)acetamide]",0.04,> 100,
